Read-outs that look alike come from different tables or passages of the source.
Assays:
[1] = 50 psig, 0.05 mol/liter acid salt, 0.5 mol/liter NaCl
Text: In each case, the solution was maintained at a pressure of 50 psig during each test. The pH of the solution was maintained substantially constant by adding portions of 0.1 mol/liter sodium bicarbonate solution to the system while the hydrolysis was proceeding. Each acid generator solution consisted of water containing 0.5 mol/liter sodium chloride and 0.05 mols/liter of the indicated halocarboxylic acid salt.
*^1 This is the time, in hours, required for the acid generator to be
onehalf reacted to form CO2 or acid.

[2] = Best estimate of applicable temperature range of CO2 generators (Table I); format: physicochemical; conditions: best estimate of the applicable temperature range as CO2 generator

CC(Cl)C(=O)O (stereo not drawn) [2-Chloropropionic acid]
Half Life, t1/2 ([1]; Test 25, 130 °F, pH 6.2): 73.1 h
Half Life, t1/2 ([1]; Test 26, 114 °F, pH 6.2): 598.5 h

CC(Cl)CC(=O)O (stereo not drawn) [3-Chlorobutyric acid]
Half Life, t1/2 ([1]; Test 22, 125 °F, pH 6.2): 13.2 h
Half Life, t1/2 ([1]; Test 23, 99 °F, pH 6.2): 29.2 h
Half Life, t1/2 ([1]; Test 24, 102 °F, pH 6.2): 80.0 h

O=C(O)CCCl [3-Chloropropionic acid]
Half Life, t1/2 ([1]; Test 1, 138 °F, pH 8.0): 43.5 h
Half Life, t1/2 ([1]; Test 2, 140 °F, pH 7.0): 16.1 h
Half Life, t1/2 ([1]; Test 3, 133 °F, pH 6.2): 27.9 h
Half Life, t1/2 ([1]; Test 4, 133 °F, pH 5.5): 30.4 h
Half Life, t1/2 ([1]; Test 5, 113 °F, pH 5.5): 114.0 h
Half Life, t1/2 ([1]; Test 6, 117 °F, pH 6.2): 95.8 h
Half Life, t1/2 ([1]; Test 7, 114 °F, pH 7.0): 130.1 h

O=C(O)CBr [Bromoacetic acid]
Half Life, t1/2 ([1]; Test 16, 167 °F, pH 5.5): 17.3 h
Half Life, t1/2 ([1]; Test 17, 166 °F, pH 7.0): 12.5 h
Half Life, t1/2 ([1]; Test 18, 143 °F, pH 7.0): 171.4 h
Half Life, t1/2 ([1]; Test 19, 156 °F, pH 6.2): 32.6 h
Half Life, t1/2 ([1]; Test 20, 140 °F, pH 6.2): 136.9 h
Half Life, t1/2 ([1]; Test 21, 124 °F, pH 6.2): 319.2 h

O=C(O)C(Cl)Cl [Dichloroacetic acid]
Half Life, t1/2 ([1]; Test 10, 197 °F, pH 7.0): 111.8 h
Half Life, t1/2 ([1]; Test 11, 221 °F, pH 7.0): 23.0 h

O=C(O)CCl [Monochloroacetic acid]
Half Life, t1/2 ([1]; Test 8, 182 °F, pH 7.0): 127.9 h
Half Life, t1/2 ([1]; Test 9, 198 °F, pH 7.0): 49.4 h

O=C(O)c1ccccc1Cl [O--Chlorobenzoic acid]
Temperature Range [2]: > 300 °F.
Half Life, t1/2 ([1]; Test 12, 212 °F, pH 7.0): 3,113 hours
Half Life, t1/2 ([1]; Test 13, 212 °F, pH 6.2): 2,543 hours
Half Life, t1/2 ([1]; Test 14, 204 °F, pH 8.0): 3,906 hours
Half Life, t1/2 ([1]; Test 15, 251 °F, pH 8.0): 2,335 hours

From patent US4646832A, “Determining residual oil saturation by injecting salts of carbonic and halocarboxylic acids” (Shell Oil Company, priority 1985, dated 1987)
